pIC50: −log10 of the molar value. Converted amounts (≈) assume the structure as drawn.
Columns and labels:
[1] = tested on: Mycobacterium tuberculosis; test: Antitubercular activity against Mycobacterium tuberculosis H37Rv assessed as bacterial growth inhibition incubated for […] by MABA assay; assay type: functional
[2] = target: T1, Decaprenylphosphoryl-beta-D-ribose oxidase (Mycobacterium tuberculosis (strain ATCC 25618 / H37Rv), UniProt P9WJF1); test: Inhibition of Mycobacterium tuberculosis H37Rv recombinant DprE1 expressed in Escherichia coli assessed as formation of resorufin using FPR as substrate by Amplex Red hydrogen/peroxidase coupled assay
T1 sequence (P9WJF1 whole entry): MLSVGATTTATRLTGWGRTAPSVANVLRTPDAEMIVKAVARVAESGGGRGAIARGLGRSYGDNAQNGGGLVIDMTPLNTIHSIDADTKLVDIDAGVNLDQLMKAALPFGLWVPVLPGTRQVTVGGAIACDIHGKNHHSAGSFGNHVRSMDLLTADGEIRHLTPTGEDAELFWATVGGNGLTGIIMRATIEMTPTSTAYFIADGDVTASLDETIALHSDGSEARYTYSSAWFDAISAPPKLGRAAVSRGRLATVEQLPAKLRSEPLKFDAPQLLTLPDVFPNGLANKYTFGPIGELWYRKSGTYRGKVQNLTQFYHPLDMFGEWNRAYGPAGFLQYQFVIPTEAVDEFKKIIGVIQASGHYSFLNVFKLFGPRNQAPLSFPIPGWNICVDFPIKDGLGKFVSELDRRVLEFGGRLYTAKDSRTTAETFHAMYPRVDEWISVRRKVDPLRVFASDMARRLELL

[3] = Thermodynamic solubility of compound at pH 7.4 aqueous phosphate buffer; assay type: physicochemical; conditions: read-out: Therm_solubility
[4] = Plasma protein binding in human; assay type: ADME, cell-free; conditions: read-out: PPB (converted)
[5] = Metabolic stability in human liver microsomes assessed as half life at 1 uM preincubated for 10 mins followed by NADPH addition and further incubated upto 60 mins by LC-MS/MS analysis; assay type: ADME, Microsome; conditions: time 70 min
[6] = Metabolic stability in mouse liver microsomes assessed as half life at 1 uM preincubated for 10 mins followed by NADPH addition and further incubated upto 60 mins by LC-MS/MS analysis; assay type: ADME, Microsome; conditions: time 70 min
[7] = Metabolic stability in human liver microsomes assessed as intrinsic clearance at 1 uM preincubated for 10 mins followed by NADPH addition and further incubated upto 60 mins by LC-MS/MS analysis; assay type: ADME, Microsome; conditions: time 70 min, read-out: CLH
[8] = Metabolic stability in mouse liver microsomes assessed as intrinsic clearance at 1 uM preincubated for 10 mins followed by NADPH addition and further incubated upto 60 mins by LC-MS/MS analysis; assay type: ADME, Microsome; conditions: time 70 min, read-out: CLH

| Compound | MIC [1] [µM] | pIC50 [2] | further results |
| --- | --- | --- | --- |
| CS(=O)(=O)c1cc([N+](=O)[O-])c2sc(N3CCN(C(=O)C4CCCCC4)CC3)nc(=O)c2c1 | 0.96 (≈ 0.461 µg/mL) | – | – |
| CS(=O)(=O)c1cc([N+](=O)[O-])c2sc(N3CCN(C(=O)c4ccccc4)CC3)nc(=O)c2c1 | > 64 | – | – |
| CC(C)CN1CCCN(c2nc(=O)c3cc(S(C)(=O)=O)cc([N+](=O)[O-])c3s2)CC1 | 0.07 (≈ 0.0308 µg/mL) | 5.89 | – |
| CCCCS(=O)(=O)N1CCCN(c2nc(=O)c3cc(S(C)(=O)=O)cc([N+](=O)[O-])c3s2)CC1 | > 2 | – | – |
| CS(=O)(=O)c1cc([N+](=O)[O-])c2sc(N3CCN(Cc4ccccc4)CC3)nc(=O)c2c1 | 0.21 (≈ 0.0967 µg/mL) | – | – |
| CCS(=O)(=O)N1CCN(c2nc(=O)c3cc(S(C)(=O)=O)cc([N+](=O)[O-])c3s2)CC1 | 0.26 (≈ 0.12 µg/mL) | 5.17 | – |
| CS(=O)(=O)c1cc([N+](=O)[O-])c2sc(N3CCN(Cc4cccs4)CC3)nc(=O)c2c1 | 0.25 (≈ 0.117 µg/mL) | – | – |
| CS(=O)(=O)c1cc([N+](=O)[O-])c2sc(N3CCN(S(=O)(=O)C4CC4)CC3)nc(=O)c2c1 | 0.3 (≈ 0.142 µg/mL) | 5.15 | – |
| CS(=O)(=O)c1cc([N+](=O)[O-])c2sc(N3CCCN(S(=O)(=O)c4cccs4)CC3)nc(=O)c2c1 | > 3.5 | – | – |
| CC(C)CN1CCN(c2nc(=O)c3cc(S(C)(=O)=O)cc([N+](=O)[O-])c3s2)CC12CC2 | 0.17 (≈ 0.0769 µg/mL) | – | – |
| CCCCCN1CCCN(c2nc(=O)c3cc(S(C)(=O)=O)cc([N+](=O)[O-])c3s2)CC1 | 0.49 (≈ 0.223 µg/mL) | – | – |
| CS(=O)(=O)c1cc([N+](=O)[O-])c2sc(N3CCN(CC4CCC(C(F)(F)F)CC4)CC3)nc(=O)c2c1 (configuration not stated) | 1.87 (≈ 1 µg/mL) | – | – |
| CS(=O)(=O)c1cc([N+](=O)[O-])c2sc(N3CCN(CC4CCSCC4)CC3)nc(=O)c2c1 | 0.1 (≈ 0.0485 µg/mL) | – | – |
| CS(=O)(=O)c1cc([N+](=O)[O-])c2sc(N3CCN(CC4CCCCC4)C4(CC4)C3)nc(=O)c2c1 | 0.04 (≈ 0.0197 µg/mL) | 5.41 | solubility thermodynamic [3]: 0.7 µg/mL (≈ 1.42 µM); fraction unbound [4]: 0.016; half-life at 1 µM [5]: 22.6 min; half-life at 1 µM [6]: 33.5 min; CLint scaled at 1 µM [7]: 77 mL/min/kg; CLint scaled at 1 µM [8]: 163 mL/min/kg |
| CC(C)CCN1CCCN(c2nc(=O)c3cc(S(C)(=O)=O)cc([N+](=O)[O-])c3s2)CC1 | 0.49 (≈ 0.223 µg/mL) | – | – |
| CS(=O)(=O)c1cc([N+](=O)[O-])c2sc(N3CCCN(S(=O)(=O)c4ccccc4)CC3)nc(=O)c2c1 | > 3.5 | – | – |
| CS(=O)(=O)c1cc([N+](=O)[O-])c2sc(N3CCCN(CC4CCCC4)CC3)nc(=O)c2c1 | 0.15 (≈ 0.07 µg/mL) | 5.36 | – |
| CCCCS(=O)(=O)N1CCN(c2nc(=O)c3cc(S(C)(=O)=O)cc([N+](=O)[O-])c3s2)CC1 | 0.09 (≈ 0.0442 µg/mL) | 5.85 | – |
| O=c1nc(N2CCN(CC3CCCCC3)CC2)sc2c([N+](=O)[O-])cc(C(F)(F)F)cc12 [MACOZINONE] | – | – | solubility thermodynamic [3]: < 0.01 µg/mL; fraction unbound [4]: < 0.001; half-life at 1 µM [5]: 62.1 min; half-life at 1 µM [6]: 31.5 min; CLint scaled at 1 µM [7]: 28.1 mL/min/kg; CLint scaled at 1 µM [8]: 174 mL/min/kg |
| CS(=O)(=O)c1cc([N+](=O)[O-])c2sc(N3CCCN(S(=O)(=O)C4CC4)CC3)nc(=O)c2c1 | 0.94 (≈ 0.459 µg/mL) | 4.78 | – |
| CS(=O)(=O)c1cc([N+](=O)[O-])c2sc(N3CCN(CC4CCOCC4)CC3)nc(=O)c2c1 | 0.51 (≈ 0.239 µg/mL) | 4.99 | – |
| CS(=O)(=O)c1cc([N+](=O)[O-])c2sc(N3CCN(CC4CCCCC4)CC3)nc(=O)c2c1 | 0.01 (≈ 0.00467 µg/mL) | 7.30 | fraction unbound [4]: 0.025; half-life at 1 µM [5]: 28.8 min; half-life at 1 µM [6]: 42.1 min; CLint scaled at 1 µM [7]: 60.5 mL/min/kg; CLint scaled at 1 µM [8]: 129 mL/min/kg |
| CS(=O)(=O)c1cc([N+](=O)[O-])c2sc(N3CCN(CC4CCCCC4)C(=O)C3)nc(=O)c2c1 | 0.07 (≈ 0.0336 µg/mL) | – | – |
| CS(=O)(=O)c1cc([N+](=O)[O-])c2sc(N3CCN(CC4CCC(F)(F)CC4)CC3)nc(=O)c2c1 | 0.03 (≈ 0.0151 µg/mL) | 5.96 | solubility thermodynamic [3]: 0.81 µg/mL (≈ 1.61 µM); fraction unbound [4]: 0.021; half-life at 1 µM [5]: 38.6 min; half-life at 1 µM [6]: 59 min; CLint scaled at 1 µM [7]: 45.1 mL/min/kg; CLint scaled at 1 µM [8]: 92.4 mL/min/kg |
| CS(=O)(=O)c1cc([N+](=O)[O-])c2sc(N3CCCN(Cc4ccccc4)CC3)nc(=O)c2c1 | 0.48 (≈ 0.228 µg/mL) | – | – |
| CCS(=O)(=O)N1CCCN(c2nc(=O)c3cc(S(C)(=O)=O)cc([N+](=O)[O-])c3s2)CC1 | > 2 | – | – |
| CS(=O)(=O)c1cc([N+](=O)[O-])c2sc(N3CCCN(CC4CCCCC4)CC3)nc(=O)c2c1 | 0.07 (≈ 0.0336 µg/mL) | 5.96 | – |
| CS(=O)(=O)c1cc([N+](=O)[O-])c2sc(N3CCN(S(=O)(=O)c4cccs4)CC3)nc(=O)c2c1 | 108 (≈ 55.8 µg/mL) | – | – |
| CS(=O)(=O)c1cc([N+](=O)[O-])c2sc(N3CCN(S(=O)(=O)c4ccccc4)CC3)nc(=O)c2c1 | 0.33 (≈ 0.168 µg/mL) | – | – |

— ChEMBL document CHEMBL5046318, “Development of 6-Methanesulfonyl-8-nitrobenzothiazinone Based Antitubercular Agents” (ACS Med Chem Lett, 2022)
